Results: patent publication US9604933B2, “Pyrazolochalcones as potential anticancer agents” (COUNCIL OF SCIENTIFIC AND INDUSTRIAL RESEARCH, priority 2013, dated 2017)

Legend:
HL-60(TB) = assay: NCI SRB cytotoxicity, leukemia HL-60(TB); assay type: cell-based; details: Homo sapiens, 48 h exposure
Description: (§1) The pyrazolochalcones (7e, 8e, 10e, 11e, 12e, 13e and 8f) have been tested against fifty nine human tumor cell lines derived from nine cancer types (leukemia, non-small cell lung cancer, colon cancer, CNS cancer, melanoma, ovarian cancer, renal cancer, prostate cancer and breast cancer) as per the NCI protocol. For each compound, dose response curves for individual cell lines have been measured at a minimum of five concentrations at 10 fold dilutions. A protocol of 48 h continuous drug exposure has been used, and a sulforhodamine B (SRB) protein assay has been used to estimate cell viability or growth. The concentration for 50% cell growth inhibition (GI50), 50% cell death (LC50, 50% growth) and total cell growth inhibition (TGI, 0% growth) values were tabulated (Table-1). DMSO was used as control to calculate the values of GI50, LC50 and TGI. The compounds 7e, 8e, 10e, 11e, 12e, 13e and 8f has been evaluated for their in vitro cytotoxicity in […] cell lines from nine human cancer types of leukemia (K-562, SR), non-small cell lung (Hop-62, NCI-H226, NCI-H522), colon (HCT-116, HCT-15, HCC-2998), CNS (SF-539), melanoma (SK-MEL-5, UACC-62, M14), ovarian (IGROV1), renal (A498), prostate (PC3) and breast (BT-549, MDA-MB-435, HS578T) origin. The results are expressed as percent of cell growth determined relative to that of untreated control cells (Table 2).

SF-539 = assay: NCI SRB cytotoxicity, CNS SF-539; assay type: cell-based; details: Homo sapiens, 48 h exposure
Description: as §1

Renal = assay: NCI SRB cytotoxicity, renal panel average; assay type: cell-based, human; details: average of cell lines; for GI50 / CC50: Homo sapiens; for GI50: read-out: Log10 GI50 (concentration in mol/L causing 50% growth inhibition) (converted); for CC50: read-out: Log10 LC50 (concentration in mol/L causing 50% cell death) (converted)
Description: as §1
(§2) Each cancer type represents the average of six to eight different cancer cell lines.

HCT-15 = assay: NCI SRB cytotoxicity, colon HCT-15; assay type: cell-based; details: Homo sapiens, 48 h exposure
Description: as §1

NCI-H226 = assay: NCI SRB cytotoxicity, non-small cell lung NCI-H226; assay type: cell-based; details: Homo sapiens, 48 h exposure
Description: as §1

PC-3 = assay: NCI SRB cytotoxicity, prostate PC-3; assay type: cell-based; details: Homo sapiens, 48 h exposure
Description: as §1

SK-OV-3 = assay: NCI SRB cytotoxicity, ovarian SK-OV-3; assay type: cell-based; details: Homo sapiens, 48 h exposure
Description: as §1

OVCAR-3 = assay: NCI SRB cytotoxicity, ovarian OVCAR-3; assay type: cell-based; details: Homo sapiens, 48 h exposure
Description: as §1

ACHN = assay: NCI SRB cytotoxicity, renal ACHN; assay type: cell-based; details: Homo sapiens, 48 h exposure
Description: as §1

OVCAR-8 = assay: NCI SRB cytotoxicity, ovarian OVCAR-8; assay type: cell-based; details: Homo sapiens, 48 h exposure
Description: as §1

M14 = assay: NCI SRB cytotoxicity, melanoma M14; assay type: cell-based; details: Homo sapiens, 48 h exposure
Description: as §1

CNS = assay: NCI SRB cytotoxicity, CNS panel average; assay type: cell-based, human; details: average of cell lines; for GI50 / LC50: Homo sapiens; for GI50: read-out: Log10 GI50 (concentration in mol/L causing 50% growth inhibition) (converted); for LC50: read-out: Log10 LC50 (concentration in mol/L causing 50% cell death) (converted)
Description: as §1, §2

NCI/ADR-RES = assay: NCI SRB cytotoxicity, ovarian NCI/ADR-RES; assay type: cell-based; details: Homo sapiens, 48 h exposure
Description: as §1

T-47D = assay: NCI SRB cytotoxicity, breast T-47D; assay type: cell-based; details: Homo sapiens, T47D, 48 h exposure
Description: as §1

DU-145 = assay: NCI SRB cytotoxicity, prostate DU-145; assay type: cell-based; details: Homo sapiens, 48 h exposure
Description: as §1

MOLT-4 = assay: NCI SRB cytotoxicity, leukemia MOLT-4; assay type: cell-based; details: Homo sapiens, 48 h exposure
Description: as §1

SN12C = assay: NCI SRB cytotoxicity, renal SN12C; assay type: cell-based; details: Homo sapiens, 48 h exposure
Description: as §1

HCC-2998 = assay: NCI SRB cytotoxicity, colon HCC-2998; assay type: cell-based; details: Homo sapiens, 48 h exposure
Description: as §1

UACC-62 = assay: NCI SRB cytotoxicity, melanoma UACC-62; assay type: cell-based; details: Homo sapiens, 48 h exposure
Description: as §1

Melanoma = assay: NCI SRB cytotoxicity, melanoma panel average; assay type: cell-based, human; details: average of cell lines; for GI50 / LC50: Homo sapiens; for GI50: read-out: Log10 GI50 (concentration in mol/L causing 50% growth inhibition) (converted); for LC50: read-out: Log10 LC50 (concentration in mol/L causing 50% cell death) (converted)
Description: as §1, §2

K-562 = assay: NCI SRB cytotoxicity, leukemia K-562; assay type: cell-based; details: Homo sapiens, K562, 48 h exposure
Description: as §1

SK-MEL-2 = assay: NCI SRB cytotoxicity, melanoma SK-MEL-2; assay type: cell-based; details: Homo sapiens, 48 h exposure
Description: as §1

MDA-MB-231/ATCC = assay: NCI SRB cytotoxicity, breast MDA-MB-231/ATCC; assay type: cell-based; details: Homo sapiens, 48 h exposure
Description: as §1

HT29 = assay: NCI SRB cytotoxicity, colon HT29; assay type: cell-based; details: Homo sapiens, HT-29, 48 h exposure
Description: as §1

HOP92 = assay: NCI SRB cytotoxicity, non-small cell lung HOP92; assay type: cell-based; details: Homo sapiens, HOP-92, 48 h exposure
Description: as §1

MCF7 = assay: NCI SRB cytotoxicity, breast MCF7; assay type: cell-based; details: Homo sapiens, 48 h exposure
Description: as §1

BT-549 = assay: NCI SRB cytotoxicity, breast BT-549; assay type: cell-based; details: Homo sapiens, 48 h exposure
Description: as §1

MALME-3M = assay: NCI SRB cytotoxicity, melanoma MALME-3M; assay type: cell-based; details: Homo sapiens, 48 h exposure
Description: as §1

Colon = assay: NCI SRB cytotoxicity, colon panel average; assay type: cell-based, human; details: average of cell lines; for GI50 / LC50: Homo sapiens; for GI50: read-out: Log10 GI50 (concentration in mol/L causing 50% growth inhibition) (converted); for LC50: read-out: Log10 LC50 (concentration in mol/L causing 50% cell death) (converted)
Description: as §1, §2

SR = assay: NCI SRB cytotoxicity, leukemia SR; assay type: cell-based; details: Homo sapiens, 48 h exposure
Description: as §1

SNB-19 = assay: NCI SRB cytotoxicity, CNS SNB-19; assay type: cell-based; details: Homo sapiens, 48 h exposure
Description: as §1

COLO-205 = assay: NCI SRB cytotoxicity, colon COLO-205; assay type: cell-based; details: Homo sapiens, 48 h exposure
Description: as §1

SMILES | GI50 (HL-60(TB)) [nM] | GI50 (SF-539) [nM] | CC50 (Renal) [nM] | Log10 TGI (concentration in mol/L causing total growth inhibition (0% growth)) (Renal) [mol/L] | GI50 (HCT-15) [nM] | GI50 (NCI-H226) [nM] | GI50 (PC-3) [nM] | GI50 (SK-OV-3) [nM] | GI50 (OVCAR-3) [nM] | GI50 (ACHN) [nM] | GI50 (OVCAR-8) [nM] | GI50 (M14) [nM] | LC50 (CNS) [nM] | Log10 TGI (concentration in mol/L causing total growth inhibition (0% growth)) (CNS) [mol/L] | GI50 (NCI/ADR-RES) [nM] | GI50 (T-47D) [nM] | GI50 (DU-145) [nM] | GI50 (MOLT-4) [nM] | GI50 (SN12C) [nM] | GI50 (HCC-2998) [nM] | other results
COc1ccc(C(=O)/C=C/c2cc(-c3cc(OC)c(OC)c(OC)c3)n[nH]2)cc1 [7e, (E)-1-(4-methoxyphenyl)-3-(3-(3,4,5-trimethoxyphenyl)-1H-pyrazol-5-yl)prop-2-en-1-one] | 2160 | 1620 | 18200 | −5.43 | 1580 | 1890 | 1510 | 3990 | 1740 | 1960 | 2430 | 2200 | 24500 | −5.46 | 2700 | 2310 | 1430 | 2670 | 1810 | 1780 | GI50 (Renal): 1820 nM; GI50 (CNS): 1660 nM; GI50 (UACC-62): 1850 nM; GI50 (Melanoma): 2090 nM; LC50 (Melanoma): 36300 nM; Log10 TGI (concentration in mol/L causing total growth inhibition) (Melanoma): −5.32 mol/L; GI50 (K-562): 2320 nM; GI50 (SK-MEL-2): 4140 nM; GI50 (MDA-MB-231/ATCC): 1880 nM; GI50 (HT29): 1970 nM; GI50 (HOP92): 1060 nM; GI50 (MCF7): 1150 nM; GI50 (BT-549): 1860 nM; GI50 (MALME-3M): 1860 nM; GI50 (Colon): 1740 nM; LC50 (Colon): 19100 nM; Log10 TGI (concentration in mol/L causing total growth inhibition) (Colon): −5.41 mol/L; GI50 (SR): 340 nM; GI50 (SNB-19): 1510 nM; GI50 (COLO-205): 1730 nM
COc1ccc(C(=O)/C=C/c2cc(-c3cc(OC)c(OC)c(OC)c3)n[nH]2)cc1OC [8e, (E)-1-(3,4-dimethoxyphenyl)-3-(3-(3,4,5-trimethoxyphenyl)-1H-pyrazol-5-yl)prop-2-en-1-one] | 1440 | 1270 | 6610 | −5.51 | 1270 | 1690 | 1360 | 2790 | 1680 | 1660 | 1320 | 1840 | 6170 | −5.53 | 3130 | 1630 | 550 | 2110 | 1540 | 2130 | GI50 (Renal): 1510 nM; GI50 (CNS): 1410 nM; GI50 (UACC-62): 1740 nM; GI50 (Melanoma): 1700 nM; LC50 (Melanoma): 6170 nM; Log10 TGI (concentration in mol/L causing total growth inhibition) (Melanoma): −5.49 mol/L; GI50 (K-562): 1910 nM; GI50 (SK-MEL-2): 1850 nM; GI50 (MDA-MB-231/ATCC): 1480 nM; GI50 (HT29): 1620 nM; GI50 (MCF7): 820 nM; GI50 (BT-549): 1440 nM; GI50 (MALME-3M): 1990 nM; GI50 (Colon): 1410 nM; LC50 (Colon): 6170 nM; Log10 TGI (concentration in mol/L causing total growth inhibition) (Colon): −5.52 mol/L; GI50 (SR): 270 nM; GI50 (SNB-19): 1420 nM; GI50 (COLO-205): 1740 nM
COc1cc(-c2cc(/C=C/C(=O)c3ccc4c(c3)OCO4)[nH]n2)cc(OC)c1OC [11e, (E)-1-(benzo[d][1,3]dioxol-5-yl)-3-(3-(3,4,5-trimethoxyphenyl)-1H-pyrazol-5-yl)prop-2-en-1-one] | 2170 | 2070 | 42700 | −4.94 | 2120 | 3310 | 2810 | 5760 | 3380 | 1880 | 2850 | 3860 | 63100 | −4.83 | 4230 | 2510 | 2720 | 2980 | 3940 | 1950 | Log10 GI50 (concentration in mol/L causing 50% growth inhibition) (Renal): −4.37 mol/L; Log10 GI50 (concentration in mol/L causing 50% growth inhibition) (CNS): −4.2 mol/L; GI50 (UACC-62): 4670 nM; LC50 (Melanoma): 72400 nM; Log10 GI50 (concentration in mol/L causing 50% growth inhibition) (Melanoma): −4.14 mol/L; Log10 TGI (concentration in mol/L causing total growth inhibition) (Melanoma): −4.52 mol/L; GI50 (K-562): 3200 nM; GI50 (SK-MEL-2): 10300 nM; GI50 (MDA-MB-231/ATCC): 3500 nM; GI50 (HT29): 2180 nM; GI50 (MCF7): 1670 nM; GI50 (BT-549): 2370 nM; GI50 (MALME-3M): 4420 nM; LC50 (Colon): 21900 nM; Log10 GI50 (concentration in mol/L causing 50% growth inhibition) (Colon): −4.66 mol/L; Log10 TGI (concentration in mol/L causing total growth inhibition) (Colon): −5.33 mol/L; GI50 (SR): 550 nM; GI50 (SNB-19): 4300 nM; GI50 (COLO-205): 1870 nM
